Experimental data from patent US11667636B2, “Modulators of Mas-related G-protein receptor X2 and related products and methods” (Escient Pharmaceuticals, Inc., priority 2020, dated 2023).

Biological target: T1, human MRGPRX2 (Homo sapiens, UniProt Q96LB1)
T1 construct: expressed in transfected cells
T1 sequence (Q96LB1 1-330): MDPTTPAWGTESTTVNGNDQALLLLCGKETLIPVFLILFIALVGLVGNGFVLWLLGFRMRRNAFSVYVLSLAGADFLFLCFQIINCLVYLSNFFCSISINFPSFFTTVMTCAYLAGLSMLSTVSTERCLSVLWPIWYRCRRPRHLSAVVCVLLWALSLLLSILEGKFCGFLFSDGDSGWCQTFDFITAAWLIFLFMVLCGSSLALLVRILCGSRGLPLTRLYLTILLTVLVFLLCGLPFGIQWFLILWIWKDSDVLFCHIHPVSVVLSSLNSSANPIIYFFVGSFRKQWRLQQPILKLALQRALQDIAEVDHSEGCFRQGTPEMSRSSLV
Experiment: MRGPRX2 Activity: IP-One HTRF antagonist assay in CHO cells stably expressing human MRGPRX2, versus Cortistatin-14
Assay type: cell-based
Settings: versus 0.3 uM Cortistatin-14 agonist, IP-1 HTRF, read-out: MRGPR2 Antagonist Activity
Experimental: CHO cells stably transfected to express human MRGPRX2 were maintained in an incubator at 37° C. with 5% CO2 and grown in F12 (HAM) media with 10% fetal bovine serum (FBS), 1% Glutamax, 1% penicillin/streptomycin, 800 μg/mL Geneticin (G418), and 300 μg/mL Hygromycin B. Cells were plated in a 384-well assay plate at 20,000 cells per well in 12 μL of Opti-MEM and kept in an incubator overnight. On the day of the assay, compounds solubilized at 10 mM in DMSO were added as a 10-point curve (30 uM final top concentration with 1:3 serial dilutions) using a Tecan D300E digital dispenser. Agonists were diluted in assay buffer (final concentrations of 5.7 mM Tris-HCl, 43 mM NaCl, 50 mM LiCl, pH=8) and 2 μL of the agonist Cortistatin-14 (CPC Scientific, catalog CORT-002) are added to each well. Final concentrations of agonists were 0.3 μM Cortistatin-14. Final concentrations of DMSO were kept consistent across the plate. Plates were incubated in the dark for 1 hr at 37° C. and then for 1 hr at room temperature. IP-1 standards and HTRF detection reagents were added according to the IP-One-Gq Kit purchased from Cisbio (part number 62IPAPEJ) and incubated in the dark for 1 hr at room temperature. The plate was read on a Molecular Devices SpectraMax iD5 plate reader. The HTRF ratio was calculated from the raw data and graphed using GraphPad Prism to calculate an IC50 value for each compound.
The activity ranges are denoted as follows: “+++++” denotes antagonist activity <50 nM; “++++” denotes antagonist activity between 51 and 100 nM; “+++” denotes activity between 101 and 500 nM; “++” denotes activity between 501 and 1000 nM; and “+” denotes activity >1000 nM

Row | Structure (SMILES) | IC50 [nM]
1 | CNc1ccc(C(=O)N[C@H]2CC[C@@H](Nc3cccc4nc(C(F)F)cn34)CC2)cc1 [2-195] | < 50
2 | Cc1cc2c(C(=O)N[C@H]3CC[C@@H](Nc4cccc5nc(C(F)(F)F)cn45)CC3)cccc2n1C [2-198] | < 50
3 | O=C(N[C@H]1CC[C@@H](Nc2cccc3nc(C(F)(F)F)cn23)CC1)c1c[nH]c2ccccc12 [2-201] | < 50
4 | O=C(N[C@H]1CC[C@@H](Nc2cccc3nc(C(F)(F)F)cn23)CC1)c1ccc(-n2cnnn2)cc1 [2-202] | < 50
5 | CC(C)S(=O)(=O)Nc1ccc(C(=O)N[C@H]2CC[C@@H](Nc3cccc4nc(C(F)(F)F)cn34)CC2)cc1 [2-203] | < 50
6 | NS(=O)(=O)c1ccc(C(=O)N[C@H]2CC[C@@H](Nc3cccc4nc(C(F)(F)F)cn34)CC2)cc1 [2-204] | < 50
7 | CC(C)Oc1ccc(C(=O)N[C@H]2CC[C@@H](Nc3cccc4nc(C(F)(F)F)cn34)CC2)cc1Cl [2-207] | 101 to 500
8 | O=C(N[C@H]1CC[C@@H](Nc2cccc3nc(C(F)(F)F)cn23)CC1)c1ccn2ccnc2c1 [2-208] | 51 to 100
9 | O=C(N[C@H]1CC[C@@H](Nc2cccc3nc(C(F)F)cn23)CC1)c1ccc(OCCF)cc1 [2-218] | < 50
10 | O=C(N[C@H]1CC[C@@H](Nc2cccc3nc(C(F)F)cn23)CC1)c1cn(C(F)F)nc1C(F)F [2-220] | < 50
11 | Cc1cc(C(=O)N[C@H]2CC[C@@H](Nc3cccc4nc(C(F)F)cn34)CC2)cn1C(F)F [2-221] | < 50
12 | Cc1c(C(=O)N[C@H]2CC[C@@H](Nc3cccc4nc(C(F)(F)F)cn34)CC2)c2ccccc2n1C [2-227] | 101 to 500
13 | N#Cc1nn(C(F)F)cc1C(=O)N[C@H]1CC[C@@H](Nc2cccc3nc(C(F)(F)F)cn23)CC1 [2-229] | < 50
14 | O=C(N[C@H]1CC[C@@H](Nc2cccc3nc(C(F)(F)F)cn23)CC1)c1ccc(OCCF)cc1 [2-230] | < 50
15 | O=C(N[C@H]1CC[C@@H](Nc2cccc3nc(C(F)(F)F)cn23)CC1)c1cccc2[nH]ccc12 [2-232] | < 50
16 | Cn1cc(C(=O)N[C@H]2CC[C@@H](Nc3cccc4nc(C(F)(F)F)cn34)CC2)nn1 [2-233] | 101 to 500
17 | O=C(N[C@H]1CC[C@@H](Nc2cccc3nc(C(F)(F)F)cn23)CC1)c1cncc2cn[nH]c12 [2-241] | 101 to 500
18 | Cn1ncc(C(=O)N[C@H]2CC[C@@H](Nc3cccc4nc(C(F)(F)F)cn34)CC2)c1C1CC1 [2-245] | 101 to 500
19 | Cn1cc(C(=O)N[C@H]2CC[C@@H](Nc3cccc4nc(C(F)(F)F)cn34)CC2)c(N)n1 [2-246] | < 50
20 | Cc1n[nH]c2c(C(=O)N[C@H]3CC[C@@H](Nc4cccc5nc(C(F)(F)F)cn45)CC3)ccnc12 [2-247] | 101 to 500
21 | O=C(N[C@H]1CC[C@@H](Nc2cccc3nc(C(F)F)cn23)CC1)c1ccnc2cn[nH]c12 [2-253] | < 50
22 | O=C(N[C@H]1CC[C@@H](Nc2cccc3nc(C(F)F)cn23)CC1)c1ccc(F)nc1 [2-254] | 101 to 500
23 | CCCn1cc(C(=O)N[C@H]2CC[C@@H](Nc3cccc4nc(C(F)F)cn34)CC2)cn1 [2-255] | 101 to 500
24 | CC(C)(F)Cn1cc(C(=O)N[C@H]2CC[C@@H](Nc3cccc4nc(C(F)F)cn34)CC2)c(Cl)n1 [2-257] | < 50
25 | CN(C)c1ccc(C(=O)N[C@H]2CC[C@@H](Nc3cccc4nc(C#N)cn34)CC2)cc1 [2-258] | < 50

Row | Structure (SMILES) | IC50 [nM]
26 | CNc1ccc(C(=O)N[C@H]2CC[C@@H](Nc3cccc4nc(C#N)cn34)CC2)cc1 [2-259] | 101 to 500
27 | COc1cccc(C(=O)N[C@H]2CC[C@@H](Nc3cccc4nc(C#N)cn34)CC2)c1 [2-260] | 101 to 500
28 | CNc1ccccc1C(=O)N[C@H]1CC[C@@H](Nc2cccc3nc(C#N)cn23)CC1 [2-262] | 101 to 500
29 | O=C(N[C@H]1CC[C@@H](Nc2cccc3nc(C(F)F)cn23)CC1)c1nn2ccccc2c1NCC(F)F [2-269] | 101 to 500
30 | Cn1ncc(C(=O)N[C@H]2CC[C@@H](Nc3cccc4nc(C(F)F)cn34)CC2)c1NCC(F)F [2-270] | 51 to 100
31 | CN(CC(F)F)c1ccc(C(=O)N[C@H]2CC[C@@H](Nc3cccc4nc(C(F)F)cn34)CC2)cc1 [2-274] | < 50
32 | O=C(N[C@H]1CC[C@@H](Nc2cccc3nc(C(F)F)cn23)CC1)c1ccc(Cl)cc1Cl [2-275] | 101 to 500
33 | CNc1ccccc1C(=O)N[C@H]1CC[C@@H](Nc2cccc3nc(C(F)F)cn23)CC1 [2-276] | 51 to 100
34 | CC(C)(O)Cn1cc(C(=O)N[C@H]2CC[C@@H](Nc3cccc4nc(C(F)F)cn34)CC2)c(Cl)n1 [2-283] | 101 to 500
35 | O=C(N[C@H]1CC[C@@H](Nc2cccc3nc(C(F)(F)F)cn23)CC1)c1cnn(CC(F)F)c1C(F)F [2-284] | 101 to 500
36 | O=C(N[C@H]1CC[C@@H](Nc2cccc3nc(C(F)F)cn23)CC1)c1ccc(C(F)F)cc1 [2-285] | 51 to 100
37 | Cn1cc(C(=O)N[C@H]2CC[C@@H](Nc3cccc4nc(C(F)F)cn34)CC2)c(C(F)F)n1 [2-286] | 101 to 500
38 | Cn1cc(C(=O)N[C@H]2CC[C@@H](Nc3cccc4nc(C(F)F)cn34)CC2)c(NCC(F)F)n1 [2-288] | < 50
39 | Cn1cc(C(=O)NC2CCC(Nc3cccc4nc(C(F)(F)F)cn34)CC2)c2ccccc21 (centres unmarked) [2-289] | < 50
40 | O=C(N[C@H]1CC[C@@H](Nc2cccc3nc(C(F)(F)F)cn23)CC1)c1noc2ccccc12 [2-290] | 101 to 500
41 | Cn1cc(C(=O)N[C@H]2CC[C@@H](Nc3cccc4nc(C(F)(F)F)cn34)CC2)c2c(Cl)cccc21 [2-291] | < 50
42 | CCn1ncc(C(=O)N[C@H]2CC[C@@H](Nc3cccc4nc(C(F)(F)F)cn34)CC2)c1Cl [2-292] | 101 to 500
43 | CCn1cc(C(=O)N[C@H]2CC[C@@H](Nc3cccc4nc(C(F)(F)F)cn34)CC2)c(Cl)n1 [2-293] | < 50
44 | CC(C)n1cc(C(=O)N[C@H]2CC[C@@H](Nc3cccc4nc(C(F)(F)F)cn34)CC2)c(Cl)n1 [2-294] | < 50
45 | O=C(N[C@H]1CC[C@@H](Nc2cccc3nc(C(F)F)cn23)CC1)c1cn(C(F)(F)F)nc1Cl [2-295] | 51 to 100
46 | O=C(N[C@H]1CC[C@@H](Nc2cccc3nc(C(F)(F)F)cn23)CC1)c1cn(C(F)F)nc1Cl [2-297] | < 50
47 | COc1ccc(C(=O)N[C@@H]2CCC[C@H](Nc3cccc4sc(C(F)(F)F)cc34)C2)cc1 [Example 2, 4-methoxy-N-((1R,3S)-3-((2-(trifluoromethyl)benzo[b]thiophen-4-yl)amino)cyclohexyl)benzamide] | 101 to 500
48 | COc1ccc(C(=O)N[C@@H]2CCC[C@H](Nc3cccc4oc(C(F)(F)F)nc34)C2)cc1 [Example 4, 4-methoxy-N-[(1R,3S)-3-[[2-(trifluoromethyl)-1,3-benzoxazol-4-yl]amino]cyclohexyl]benzamide] | 501 to 1000
49 | N#Cc1cccc(C(=O)N[C@H]2CC[C@@H](Nc3cccc4sc(C(F)(F)F)cc34)CC2)c1 [Example 5, 3-cyano-N-((1 S,4S)-4-((2-(trifluoromethyl)benzo[b]thiophen-4-yl)amino)cyclohexyl)benzamide] | 101 to 500
50 | Nc1nn(CC(F)F)cc1C(=O)N[C@H]1CC[C@@H](Nc2cccc3nc(C(F)(F)F)cn23)CC1 [Example 6, 3-amino-1-(2,2-difluoroethyl)-N-[4-[[2-(trifluoromethyl)imidazo[1,2-a]pyridin-5 yl]amino]cyclohexyl]pyrazole-4-carboxamide] | < 50
